Data from patent publication US9278920B2, “Pleuromutilin derivatives for use in the treatment of diseases mediated by microbes” (Nabriva Therapeutics AG, priority 2010, dated 2016).
Structures can show the parent of a compound that is named as a salt.

Legend:
[1] = system: Streptococcus pneumoniae ATCC49619; experiment: MIC by Agar Dilution Test or Microdilution Test (CLSI M7-A7); assay type: cell-based; settings: in vitro, strain ATCC49619, read-out: MIC against Streptococcus pneumoniae ATCC49619
Description: (§1) The in vitro activity against aerobic bacteria was determined by Agar Dilution Test or Microdilution Test according to the Clinical and Laboratory Standards Institute (CLSI, former NCCLS) Document M7-A7 Vol. 26, No. 2: “Methods for Dilution Antimicrobial Susceptibility Tests for Bacteria that Grow Aerobically—Approved Standard; Seventh Edition (2006)”; and the test against anaerobic bacteria was performed according to the Clinical and Laboratory Standards Institute (CLSI, former NCCLS), Document, M11-A6, Vol. 24, No. 2: “Methods for Antimicrobial Susceptibility Testing of Anaerobic Bacteria—Approved Standard; Sixth Edition (2004)” and the in vivo activity was tested by the septicemia mouse model against Staphylococcus aureus.

[2] = system: Staphylococcus aureus ATCC49951; experiment: as above; assay type: cell-based; settings: in vitro, strain ATCC49951, read-out: MIC against Staphylococcus aureus ATCC49951
Description: as §1

## C=C[C@]1(C)C[C@@H](OC(=O)CSC2CCC(N)CCC2O)[C@]2(C)C(C)CCC3(CCC(=O)C32)[C@@H](C)C1O (mixture of isomers) [Example 12, 14-O-{[(1R, 2R, 5R)-5-Amino-2-hydroxy-cycloheptylsulfanyl]-acetyl}-mutilin hydrochloride and the (1S, 2S, 5S), (1R, 2R, 5S), (1S, 2S, 5R) diastereomers thereof]
[1]
  MIC: ≤ 2 mg/L
[2]
  MIC: ≤ 2 mg/L
